Assay results published in patent US20230263782A1, “ORAL FORMULATIONS AND USES THEREOF” (INVENTISBIO CO., LTD., priority 2020, published 2023).
Converted amounts (≈) assume the structure as drawn. Counter-ions that a name gives are not always drawn. Like-named read-outs stand apart in the source and are kept apart here.

What was measured:
[1] = Solubility in water (statement); assay type: physicochemical
[2] = Solid stability test at 40° C./75% RH for 8 days (HPLC, XRPD); assay type: physicochemical; details: for Solid stability: 40° C./75% RH for 8 days, HPLC and XRPD; for Purity at 8 days / Purity at 0 day: HPLC; for Purity at 8 days: after 40° C./75% RH for 8 days; for Purity at 0 day: start of 40° C./75% RH storage
Method: HPLC ANALYSIS: a representative HPLC method is shown below, which can be used, for example, to analyze the purity, solubility, and stability of the salts herein.
For stability test: About 20 mg of Compound FA, L-lysine salt and meglumine salt (Form I) were weighed into vials, and put at the condition of 40° C./75% RH for 8 days. At 0 and 8 days, the solid sample was dissolved using acetonitrile/water (1/1) to make a solution with the concentration of 0.2 mg/mL. Sample solutions were analyzed by HPLC and solid samples were examined by XRPD.

[3] = compared with fulvestrant, GDC-0810 and AZD9496; WO2017/136688; cited from earlier work
ER+ breast cancer cells = details: as discussed in WO2017/136688; cited from earlier work
[4] = Solubility test in pH 1.2 or pH 6.8 buffer (saturated solutions, HPLC; remaining solids by XRPD); assay type: physicochemical; details: for Stability in buffer solution (HPLC): pH 1.2 buffer solution; for solubility at 30 min / Solubility at 24 h: room temperature; for XRPD patterns at 24 h: remaining solid
Method: For solubility test: About 20 mg of Compound FA, L-lysine salt and meglumine salt (Form I) were weighed into vials, added 3 mL of pH1.2 or pH 6.8 buffer to make saturated solutions. All suspensions were kept shaking with 200 rpm at room temperature for up to 24 hours. […] At 24 hours, remaining solids were collected and determined by XRPD.

[5] = Dynamic moisture sorption analysis (DVS), XRPD before and after; assay type: physicochemical; details: FIG. 5A
Method: Dynamic moisture sorption analysis (DVS): DVS was determined using IGAsorp (Hiden Isochema, UK). The sample was tested at a targeted RH (relative humidity) of 10 to 90% full cycle in step mode. The analysis was performed in 10% RH increments.

[6] = Solid stability test of Form I at 25° C./92.5% RH for 10 days (XRPD); assay type: physicochemical
Method: Solid stability test of Form I at 92.5% RH for 10 days: About 20 mg of meglumine salt Form I was put into the condition of 25° C./92.5% RH for 10 days. At 10 days, the sample was analyzed by XRPD.

[7] = Physical treatment (grinding) of Form I; assay type: physicochemical; details: grinded for 2 min and 5 min
Method: Physical treatment of Form I: Form I of meglumine salt was grinded for 2 min and 5 min. After grinding, the crystallinity declined, but the crystal form was still Form I.

[8] = Meglumine salt form interconversion study (slurry in IPA or water, XRPD); assay type: physicochemical; details: Water
Method: Interconversion study: Interconversion studies were carried out by mixing the same amount of different form solids in IPA or water, respectively. Suspensions were kept stirring at room temperature and 60° C. for several days, during which suspensions were filtrated and analyzed by XRPD.

ER = target: T1, ER (Homo sapiens, UniProt P03372); details: clinical samples, intramuscular injection monthly; cited from earlier work
T1 sequence (P03372 1-595): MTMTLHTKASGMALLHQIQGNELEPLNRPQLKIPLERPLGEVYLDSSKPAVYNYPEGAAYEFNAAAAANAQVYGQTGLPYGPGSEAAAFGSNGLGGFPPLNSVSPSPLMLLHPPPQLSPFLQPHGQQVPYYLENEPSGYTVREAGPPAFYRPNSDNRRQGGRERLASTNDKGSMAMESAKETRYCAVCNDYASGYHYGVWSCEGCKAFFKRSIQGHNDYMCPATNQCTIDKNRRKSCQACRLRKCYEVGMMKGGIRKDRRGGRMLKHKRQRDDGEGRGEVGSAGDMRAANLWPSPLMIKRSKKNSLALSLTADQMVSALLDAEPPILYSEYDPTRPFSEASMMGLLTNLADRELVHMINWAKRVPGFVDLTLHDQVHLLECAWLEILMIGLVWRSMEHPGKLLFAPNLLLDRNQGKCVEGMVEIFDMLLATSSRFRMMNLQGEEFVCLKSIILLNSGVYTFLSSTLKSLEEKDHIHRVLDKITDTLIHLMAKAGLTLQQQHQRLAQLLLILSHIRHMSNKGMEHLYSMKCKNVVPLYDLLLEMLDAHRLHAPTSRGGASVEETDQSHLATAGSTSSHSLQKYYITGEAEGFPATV

[9] = pH 1.2 buffer, calculated with the sum of impurities and major peak area

Row | Compound | Solid stability [2] | Purity at 8 days [2] | Purity at 0 day [2] | Stability in buffer solution (HPLC) [4] | Solubility at 24 h [4, 9] | Solubility at 24 h ([4]; pH 6.8 buffer) | XRPD patterns at 24 h ([4]; pH 1.2 buffer) | XRPD patterns at 24 h ([4]; pH 6.8 buffer) | further results
1 | C[C@@H]1Cc2c([nH]c3ccccc23)[C@@H](c2c(Cl)cc(/C=C/C(=O)O)cc2Cl)N1CC(C)(C)F [Compound FA, (E)-3-(3,5-dichloro-4-((1R,3R)-2-(2-fluoro-2-methylpropyl)-3-methyl-2,3,4,9-tetrahydro-1H-pyrido[3,4-b]indol-1-yl)phenyl)acrylic acid] | physically and chemically stable | 96.31 Area % | 98.02 Area % | unstable | 267 µg/mL (≈ 562 µM) | 3 µg/mL (≈ 6.31 µM) | Low crystallinity | Low crystallinity | Solubility in water [1]: practically insoluble in water; human hepatocyte clearance [3]: better human hepatocyte clearance; growth of ER+ breast cancer cells (ER+ breast cancer cells): inhibited the growth of ER+ breast cancer cells; solubility at 30 min ([4]; pH 1.2 buffer, pH 1.2, simulated gastric fluid, thermodynamic from solid, pH 1.2 buffer, calculated with the sum of impurities and major peak area, read-out: Solubility at 30 min): 571 µg/mL (≈ 1200 µM); solubility at 30 min ([4]; pH 6.8 buffer): 14 µg/mL (≈ 29.4 µM); Solid form before and after DVS studies (XRPD) [5]: did not change
2 | C[C@@H]1Cc2c([nH]c3ccccc23)[C@@H](c2c(Cl)cc(/C=C/C(=O)O)cc2Cl)N1CC(C)(C)F [Meglumine salt, meglumine (E)-3-(3,5-dichloro-4-((1R,3R)-2-(2-fluoro-2-methylpropyl)-3-methyl-2,3,4,9-tetrahydro-1H-pyrido[3,4-b]indol-1-yl)phenyl acrylate] | physically and chemically stable | 99.66 Area % | 99.68 Area % | unstable | 1612 µg/mL | 17 µg/mL | No change | Low crystallinity | Crystal form after storage (XRPD) [6]: remained unchanged; Crystal form after grinding [7]: still Form I; Final crystal form ([8]; 25° C.): Dihydrate; Final crystal form ([8]; 60° C.): Form I; solubility at 30 min [4, 9]: 296 µg/mL; solubility at 30 min ([4]; pH 6.8 buffer, pH 6.8, aqueous buffer, thermodynamic from solid, pH 6.8 buffer, read-out: Solubility at 30 min): 20 µg/mL
3 | C[C@]12CC[C@@H]3c4ccc(O)cc4C[C@@H](CCCCCCCCC[S+]([O-])CCCC(F)(F)C(F)(F)F)[C@H]3[C@@H]1CC[C@@H]2O (some centres unmarked) [fulvestrant] |  |  |  |  |  |  |  |  | ER degradation (ER): ~50%
